Patent publication US12727608B2, “Stable liquid animal feed ingredient” (PURAC BIOCHEM B.V., priority 2020, dated 2026)

Tests used:
Assay type in all cases: cell-based
Conditions in all cases: Experiment 2; 72 hours at 30° C.
[1] = tested on: Clostridium perfringens ATCC 13124
[2] = tested on: Streptococcus suis DSM 9682; experiment: MIC determination (Bioscreen growth)
[3] = tested on: Streptococcus suis DSM 28762; experiment: MIC determination (Bioscreen growth)

Measured: MIC value

CC(O)CO (stereo not drawn) [MPG, 1,2-propanediol]
>405 ppm: all assays above
